Source: PubChem BioAssay AID1919007 (Molecular Pharmacology Branch, DTP, NCI, 2023)

Test system: A498 complex spheroids with HUVEC/MSC, growth
Test: Anticancer human tumor A498 cell line growth inhibition [AhR];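 note: seven day exposure starting three days after spheroid seeding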;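 for viability, T/C: luminescence signal used as a surrogate for viable cells; luminescence viability scaled so 100% equals DMSO vehicle wells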
Settings: for IC50: curve of first compound; for viability, T/C: stronger effect = lower value
Method in brief: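 Complex tumor spheroids co-cultured with HUVEC and human MSC stroma; AhR antagonists tested in combination with standard-of-care and investigational agents. Top concentration at or near clinical Cmax (else 10 microM), half-log dilutions; growth expressed as percent test/control.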

[1] = second compound 0.1 µM, first compound 0.0316 µM
[2] = second compound 0.1 µM, first compound 0.1 µM
[3] = second compound 0.1 µM, first compound 0.316 µM
[4] = second compound 0.1 µM, first compound 1 µM
[5] = second compound 0.1 µM, first compound 3.16 µM
[6] = second compound 0.1 µM, first compound 10 µM
[7] = second compound 0.316 µM, first compound 0.0316 µM
[8] = second compound 0.316 µM, first compound 0.1 µM
[9] = second compound 0.316 µM, first compound 0.316 µM
[10] = second compound 0.316 µM, first compound 1 µM
[11] = second compound 0.316 µM, first compound 3.16 µM
[12] = second compound 0.316 µM, first compound 10 µM
[13] = second compound 1 µM, first compound 0.0316 µM
[14] = second compound 1 µM, first compound 0.1 µM
[15] = second compound 1 µM, first compound 0.316 µM
[16] = second compound 1 µM, first compound 1 µM
[17] = second compound 1 µM, first compound 3.16 µM
[18] = second compound 1 µM, first compound 10 µM
[19] = second compound 3.16 µM, first compound 0.0316 µM
[20] = second compound 3.16 µM, first compound 0.1 µM
[21] = second compound 3.16 µM, first compound 0.316 µM
[22] = second compound 3.16 µM, first compound 1 µM
[23] = second compound 3.16 µM, first compound 3.16 µM
[24] = second compound 3.16 µM, first compound 10 µM
[25] = second compound 10 µM, first compound 0.0316 µM
[26] = second compound 10 µM, first compound 0.1 µM
[27] = second compound 10 µM, first compound 0.316 µM
[28] = second compound 10 µM, first compound 1 µM
[29] = second compound 10 µM, first compound 3.16 µM
[30] = second compound 10 µM, first compound 10 µM

CC(C)CC(NC(=O)C(Cc1ccccc1)NC(=O)c1cnccn1)B(O)O (stereo not given) + Cc1cncc(-c2nc(NCCc3c[nH]c4ccccc34)c3ncn(C(C)C)c3n2)c1
IC50 (second compound 0.1 µM): 4.75 nM
IC50 (second compound 0.316 µM): 5.08 nM
IC50 (second compound 1 µM): 4.69 nM
IC50 (second compound 3.16 µM): 3.34 nM
IC50 (second compound 10 µM): < 0.949 nM
viability, T/C (second compound 0.1 µM, first compound 0.000949 µM): 91%
viability, T/C (second compound 0.1 µM, first compound 0.003 µM): 79.8%
viability, T/C (second compound 0.1 µM, first compound 0.00949 µM): 5.02%
viability, T/C (second compound 0.1 µM, first compound 0.03 µM): 1.12%
viability, T/C (second compound 0.1 µM, first compound 0.0949 µM): 0.37%
viability, T/C (second compound 0.1 µM, first compound 0.3 µM): 0.34%
viability, T/C (second compound 0.316 µM, first compound 0.000949 µM): 95.5%
viability, T/C (second compound 0.316 µM, first compound 0.003 µM): 88.7%
viability, T/C (second compound 0.316 µM, first compound 0.00949 µM): 4.18%
viability, T/C (second compound 0.316 µM, first compound 0.03 µM): 1.1%
viability, T/C (second compound 0.316 µM, first compound 0.0949 µM): 0.36%
viability, T/C (second compound 0.316 µM, first compound 0.3 µM): 0.3%
viability, T/C (second compound 1 µM, first compound 0.000949 µM): 88.2%
viability, T/C (second compound 1 µM, first compound 0.003 µM): 79.1%
viability, T/C (second compound 1 µM, first compound 0.00949 µM): 4.22%
viability, T/C (second compound 1 µM, first compound 0.03 µM): 0.83%
viability, T/C (second compound 1 µM, first compound 0.0949 µM): 0.33%
viability, T/C (second compound 1 µM, first compound 0.3 µM): 0.36%
viability, T/C (second compound 3.16 µM, first compound 0.000949 µM): 62.5%
viability, T/C (second compound 3.16 µM, first compound 0.003 µM): 54.9%
viability, T/C (second compound 3.16 µM, first compound 0.00949 µM): 3.44%
viability, T/C (second compound 3.16 µM, first compound 0.03 µM): 0.63%
viability, T/C (second compound 3.16 µM, first compound 0.0949 µM): 0.22%
viability, T/C (second compound 3.16 µM, first compound 0.3 µM): 0.3%
viability, T/C (second compound 10 µM, first compound 0.000949 µM): 5.04%
viability, T/C (second compound 10 µM, first compound 0.003 µM): 3.31%
viability, T/C (second compound 10 µM, first compound 0.00949 µM): 0.4%
viability, T/C (second compound 10 µM, first compound 0.03 µM): 0.14%
viability, T/C (second compound 10 µM, first compound 0.0949 µM): 0.15%
viability, T/C (second compound 10 µM, first compound 0.3 µM): 0.22%

COc1cc(Nc2ncc3c(n2)-c2ccc(Cl)cc2C(c2c(F)cccc2OC)=NC3)ccc1C(=O)O + Cc1cncc(-c2nc(NCCc3c[nH]c4ccccc34)c3ncn(C(C)C)c3n2)c1
IC50 (second compound 0.1 µM): 1460 nM
IC50 (second compound 0.316 µM): 1790 nM
IC50 (second compound 1 µM): 918 nM
IC50 (second compound 3.16 µM): 418 nM
IC50 (second compound 10 µM): < 31.6 nM
viability, T/C [1]: 68.9%
viability, T/C [2]: 72%
viability, T/C [3]: 64%
viability, T/C [4]: 51.5%
viability, T/C [5]: 44.2%
viability, T/C [6]: 32.4%
viability, T/C [7]: 71.9%
viability, T/C [8]: 67.8%
viability, T/C [9]: 69.6%
viability, T/C [10]: 54%
viability, T/C [11]: 45.3%
viability, T/C [12]: 35%
viability, T/C [13]: 71.2%
viability, T/C [14]: 71.4%
viability, T/C [15]: 62.4%
viability, T/C [16]: 47.4%
viability, T/C [17]: 41.4%
viability, T/C [18]: 33.4%
viability, T/C [19]: 56.9%
viability, T/C [20]: 58%
viability, T/C [21]: 52.2%
viability, T/C [22]: 42.3%
viability, T/C [23]: 35.3%
viability, T/C [24]: 30.5%
viability, T/C [25]: 4.64%
viability, T/C [26]: 6.08%
viability, T/C [27]: 4.95%
viability, T/C [28]: 4.83%
viability, T/C [29]: 4.84%
viability, T/C [30]: 6.67%

NS(=O)(=O)OCC1CC(n2ccc3c(NC4CCc5ccccc54)ncnc32)CC1O (stereo not given) + Cc1cncc(-c2nc(NCCc3c[nH]c4ccccc34)c3ncn(C(C)C)c3n2)c1
IC50 (second compound 0.1 µM): 448 nM
IC50 (second compound 0.316 µM): 412 nM
IC50 (second compound 1 µM): 244 nM
IC50 (second compound 3.16 µM): < 31.6 nM
IC50 (second compound 10 µM): < 31.6 nM
viability, T/C [1]: 87.5%
viability, T/C [2]: 86.2%
viability, T/C [3]: 55.5%
viability, T/C [4]: 33.3%
viability, T/C [5]: 23.7%
viability, T/C [6]: 18.3%
viability, T/C [7]: 89.2%
viability, T/C [8]: 81.6%
viability, T/C [9]: 52.1%
viability, T/C [10]: 35.4%
viability, T/C [11]: 22.4%
viability, T/C [12]: 19.2%
viability, T/C [13]: 78.3%
viability, T/C [14]: 71.3%
viability, T/C [15]: 41.6%
viability, T/C [16]: 29.7%
viability, T/C [17]: 20.3%
viability, T/C [18]: 17.9%
viability, T/C [19]: 19.1%
viability, T/C [20]: 18.4%
viability, T/C [21]: 18.8%
viability, T/C [22]: 18.3%
viability, T/C [23]: 15.5%
viability, T/C [24]: 13.8%
viability, T/C [25]: 1.63%
viability, T/C [26]: 1.35%
viability, T/C [27]: 0.89%
viability, T/C [28]: 0.94%
viability, T/C [29]: 0.76%
viability, T/C [30]: 0.77%

O=C(C=Cc1cccc(S(=O)(=O)Nc2ccccc2)c1)NO + Cc1cncc(-c2nc(NCCc3c[nH]c4ccccc34)c3ncn(C(C)C)c3n2)c1
IC50 (second compound 0.1 µM): 1260 nM
IC50 (second compound 0.316 µM): 1380 nM
IC50 (second compound 1 µM): 1120 nM
IC50 (second compound 3.16 µM): 119 nM
IC50 (second compound 10 µM): < 31.6 nM
viability, T/C [1]: 92.1%
viability, T/C [2]: 90.3%
viability, T/C [3]: 63.2%
viability, T/C [4]: 54.4%
viability, T/C [5]: 37.4%
viability, T/C [6]: 15.1%
viability, T/C [7]: 94.5%
viability, T/C [8]: 88.1%
viability, T/C [9]: 73.5%
viability, T/C [10]: 53.8%
viability, T/C [11]: 36.7%
viability, T/C [12]: 13.8%
viability, T/C [13]: 83.9%
viability, T/C [14]: 85%
viability, T/C [15]: 64.7%
viability, T/C [16]: 52.4%
viability, T/C [17]: 33.5%
viability, T/C [18]: 14.9%
viability, T/C [19]: 48.5%
viability, T/C [20]: 51.9%
viability, T/C [21]: 50%
viability, T/C [22]: 42.5%
viability, T/C [23]: 31.2%
viability, T/C [24]: 11.8%
viability, T/C [25]: 4.64%
viability, T/C [26]: 4.39%
viability, T/C [27]: 4.66%
viability, T/C [28]: 3.81%
viability, T/C [29]: 2.39%
viability, T/C [30]: 2.67%
